Data from the OligoGym collection.
Bases are written 5' to 3'; sugars and linkages follow in the same order, as letters with counts (s phosphorothioate, o phosphodiester; PS: all linkages phosphorothioate). The collection does not say whether C is 5-methylated. l = locked nucleic acid (LNA); d = 2'-deoxy (DNA)

biological target: Tau; test: rat primary cortical neurons, FLIPR, 25 uM ASO

In order of falling calcium oscillation score:
1. CTTTATTTCCAAATTCACTT (sugars l2 d16 l2, PS)  195 % of control
2. TAACCAATTAACCGAA (sugars l3 d10 l3, PS)  179 % of control
3. AACCAATTAACCGAAC (sugars l3 d10 l3, PS)  138 % of control
4. ATTTCCAAATTCACTTTTAC (sugars l4 d10 l2 d2 l2, PS)  137 % of control
5. ATTTCCAAATTCACTTTTAC (sugars llldlddddddddddldlll, PS)  135 % of control
6. CTTTATTTCCAAATTCACTT (sugars ldlllddddddddddlldll, PS)  134 % of control
7. TATTTCCAAATTCACTTTTA (sugars lldldlddddddddddllll, PS)  127 % of control
8. TTATTTCCAAATTCACTTTT (sugars l4 d11 l5, PS)  124 % of control
9. CACCTTACCACTTTCA (sugars l3 d10 l3, PS)  115 % of control
10. CTTTATTTCCAAATTCACTT (sugars l3 d11 l1 d2 l3, PS)  112 % of control
11. CTTTATTTCCAAATTCACT (sugars l5 d9 l2 d1 l2, PS)  108 % of control
12. TCCTGTGCTTCAGG (sugars l3 d8 l3, PS)  108 % of control
13. CGCTTCCAGTCCCG (sugars l3 d8 l3, PS)  107 % of control
14. CTTTATTTCCAAATTCACT (sugars l4 d10 l1 d1 l3, PS)  106 % of control
15. CTTTATTTCCAAATTCACT (sugars l4 d10 l2 d1 l2, PS)  93.2 % of control
16. CCCCTCCATTAAGAACCT (sugars l1 d15 l2, PS)  88.6 % of control
17. TTTCCCCATTTATCCTT (sugars l4 d11 l2, PS)  87.4 % of control
18. GCATGATTGTGGGC (sugars l3 d8 l3, PS)  85.7 % of control
19. CTTATTGCTTTCCAATTC (sugars l2 d12 l4, PS)  83.6 % of control
20. CTAATTTAGTCACCATC (sugars l3 d10 l4, PS)  83.3 % of control
21. AATTTACACCCAAACCTA (sugars l2 d12 l4, PS)  81.9 % of control
22. ATACAATAAATACCATATTC (sugars l3 d14 l3, PS)  81 % of control
23. CCCTTAATTTCACCCT (sugars l3 d10 l3, PS)  80.9 % of control
24. CTCTGTCACTTACTACTC (sugars l3 d13 l2, PS)  80.8 % of control
25. TCAAACTAATATTAACACT (sugars l4 d11 l4, PS)  80.8 % of control
26. CCCTCACTTTTTATTCAAC (sugars l2 d14 l3, PS)  76 % of control
27. ATCTTATTGCTTTCCAA (sugars l4 d10 l3, PS)  75.3 % of control
28. CCAAGAGGCACAAGTC (sugars l3 d10 l3, PS)  74.3 % of control
29. GGAAAGATGAAATTTGCTCT (sugars l3 d14 l3, PS)  74.1 % of control
30. CAACAATCCAACCACTAA (sugars l4 d10 l4, PS)  74.1 % of control
31. TTCTCAAGTCTCTTTAA (sugars l3 d11 l3, PS)  70.7 % of control
32. TCAATTCTCATTTCAACCTT (sugars l2 d15 l3, PS)  70.7 % of control
33. CCCACCCAAACTCCAAGT (sugars l2 d13 l3, PS)  69.3 % of control
34. CACCTTTTTCCATCTTACTA (sugars l2 d16 l2, PS)  67.5 % of control
35. AAAAGTCCATTCCCTCC (sugars l2 d12 l3, PS)  64 % of control
36. AATCAATTCTCATTTCAACC (sugars l4 d13 l3, PS)  63.9 % of control
37. TCCTCCATTGTAACTAC (sugars l2 d11 l4, PS)  63.9 % of control
38. GCGACTTGTACACG (sugars l3 d8 l3, PS)  63.7 % of control
39. CTCAAATCAATTCTCATTTC (sugars l4 d13 l3, PS)  62 % of control
40. CCCCAGACCATCAATTT (sugars l2 d13 l2, PS)  61.7 % of control
41. AGTCTTTATTAACACTC (sugars l4 d9 l4, PS)  60.8 % of control
42. AACAGGAGAGCCATTTCCCA (sugars l3 d14 l3, PS)  57.1 % of control
43. ATTTTTACCAATTTGCC (sugars l2 d11 l4, PS)  57 % of control
44. TTTCTCTAATTGTCCAA (sugars l4 d9 l4, PS)  56.6 % of control
45. TCCTAAGTCAACCACAC (sugars l4 d11 l2, PS)  56.6 % of control
46. CTTACTGATCATAATC (sugars l4 d8 l4, PS)  56.4 % of control
47. CCACCTCATTAAGATCA (sugars l3 d12 l2, PS)  56 % of control
48. ACCACATTATCATCCATT (sugars l2 d12 l4, PS)  55.7 % of control
49. CTTTTCCCAATTATTAACC (sugars l3 d14 l2, PS)  54.5 % of control
50. CCTCCTTAACCATTAG (sugars l2 d11 l3, PS)  54.5 % of control
51. CATCCATTTTCTGACTC (sugars l4 d11 l2, PS)  52 % of control
52. GCACCCACTTTCCTAATT (sugars l2 d14 l2, PS)  51.6 % of control
53. CATTTTTGTCTCATTAT (sugars l4 d9 l4, PS)  51 % of control
54. GGCGGCGCAGGCGCGA (sugars l3 d10 l3, PS)  49.6 % of control
55. AGGTCTGGCATGGGC (sugars l3 d9 l3, PS)  47.6 % of control
56. CTCCTAATTTTGCACTC (sugars l3 d11 l3, PS)  46.7 % of control
57. CTTTTTCCATCTTACTAATA (sugars l3 d14 l3, PS)  46.5 % of control
58. GTCTTTGCTTTTACTGACCA (sugars l3 d14 l3, PS)  44.4 % of control
59. ACCCAATCTTCGACTG (sugars l3 d10 l3, PS)  43.4 % of control
60. ACAGGAGAGCCATTTCCCAA (sugars l3 d14 l3, PS)  42.9 % of control
61. AGCCACTGTTGCCACA (sugars l2 d12 l2, PS)  39.3 % of control
62. AATTTATTAATTCATAAATG (sugars l3 d14 l3, PS)  38.3 % of control
63. TTACAAGCATTTCAAG (sugars l3 d10 l3, PS)  36.8 % of control
64. CCATTCCCTCCAGAACCATC (sugars l3 d14 l3, PS)  36.3 % of control
65. CTTATTAATTATCTGC (sugars l4 d8 l4, PS)  33.9 % of control
66. CCTTGATCATATTTGTGGCA (sugars l3 d14 l3, PS)  28.6 % of control
67. TAAGGCAAGGCCTATT (sugars l3 d10 l3, PS)  27.2 % of control
68. AACTTCTAGTTATACAGTTG (sugars l3 d14 l3, PS)  26.2 % of control
69. CTTGGCTTTTTTGTCATCGC (sugars l3 d14 l3, PS)  23.3 % of control
70. CCAATCTTCGACTGGACTCT (sugars l3 d14 l3, PS)  22.6 % of control
71. GACACCTCGTCAGCTAGCGT (sugars l3 d14 l3, PS)  11.7 % of control
72. GCATGCAGTTTATTCCTGGC (sugars l3 d14 l3, PS)  4.03 % of control
73. ACCATCCAAGTCAATGCCTG (sugars l3 d14 l3, PS)  4.03 % of control
74. CGAACTGCGAGGAGCAGCTG (sugars l3 d14 l3, PS)  0 % of control
75. TAATGAGCCACACTTGGAGG (sugars l3 d14 l3, PS)  0 % of control
76. CGCGGAAGGTCAGCTTGTGG (sugars l3 d14 l3, PS)  0 % of control
77. GAAGGTGGCTCTGGGC (sugars l3 d10 l3, PS)  0 % of control
